Results: patent US5306620A, “Antibodies that bind to a ligand-induced binding site on integrin and induce integrin activation” (The Scripps Research Institute, priority 1990, dated 1994)
Residues, ends and D or L forms follow the SMILES beside them.

What was measured:
[1] = biological target: T1, GPIIb-IIIa on platelets (Homo sapiens, UniProt P05106+P08514); assay: PAC1-binding assay (FACS) on platelets; type: cell-based
T1 construct: endogenous in cells; host or cells: platelets
Description: (§1) Antibody binding to cells was analyzed by flow cytometry, also referred to as fluorescence-activated cell sorting (FACS). Cells for flow cytometric analysis were harvested with 3.5 mM EDTA and an aliquot of 5×10^5 cells was pelleted, resuspended in media or Tyrodes buffer containing a specific first antibody, and incubated for 20 minutes on ice with or without peptide ligands. Cells were pelleted, washed once, and incubated for 20 minutes with the second antibody, FITC-conjugated goat anti-mouse IgG (Tago, Burlingame, Calif.). Cells were then pelleted, resuspended in 0.5 ml media or Tyrodes and analyzed on a FACS IV analyzer (Becton-Dickinson, San Jose, Calif.).
In the PAC1-binding assay for integrin-activating antibody, the activating antibody was admixed with an integrin binding cell at a concentration of about 5 uM antibody.

[2] = biological target: T2, αIIb β3 on A5 cells (Homo sapiens, UniProt P05106+P08514); assay: PAC1-binding assay (FACS) on A5 cells; type: cell-based; details: for stimulation of PAC1 binding to A5 cells by platelet agonists: ADP 10 to 50 uM, thrombin 1 to 5 units/ml, epinephrine 4 to 200 uM, phorbol myristate acetate 5 to 500 nm, ionomycin 5 to 200 nM
T2 construct: expressed in transfected cells
T2 sequence (P08514 32-887 limits assumed): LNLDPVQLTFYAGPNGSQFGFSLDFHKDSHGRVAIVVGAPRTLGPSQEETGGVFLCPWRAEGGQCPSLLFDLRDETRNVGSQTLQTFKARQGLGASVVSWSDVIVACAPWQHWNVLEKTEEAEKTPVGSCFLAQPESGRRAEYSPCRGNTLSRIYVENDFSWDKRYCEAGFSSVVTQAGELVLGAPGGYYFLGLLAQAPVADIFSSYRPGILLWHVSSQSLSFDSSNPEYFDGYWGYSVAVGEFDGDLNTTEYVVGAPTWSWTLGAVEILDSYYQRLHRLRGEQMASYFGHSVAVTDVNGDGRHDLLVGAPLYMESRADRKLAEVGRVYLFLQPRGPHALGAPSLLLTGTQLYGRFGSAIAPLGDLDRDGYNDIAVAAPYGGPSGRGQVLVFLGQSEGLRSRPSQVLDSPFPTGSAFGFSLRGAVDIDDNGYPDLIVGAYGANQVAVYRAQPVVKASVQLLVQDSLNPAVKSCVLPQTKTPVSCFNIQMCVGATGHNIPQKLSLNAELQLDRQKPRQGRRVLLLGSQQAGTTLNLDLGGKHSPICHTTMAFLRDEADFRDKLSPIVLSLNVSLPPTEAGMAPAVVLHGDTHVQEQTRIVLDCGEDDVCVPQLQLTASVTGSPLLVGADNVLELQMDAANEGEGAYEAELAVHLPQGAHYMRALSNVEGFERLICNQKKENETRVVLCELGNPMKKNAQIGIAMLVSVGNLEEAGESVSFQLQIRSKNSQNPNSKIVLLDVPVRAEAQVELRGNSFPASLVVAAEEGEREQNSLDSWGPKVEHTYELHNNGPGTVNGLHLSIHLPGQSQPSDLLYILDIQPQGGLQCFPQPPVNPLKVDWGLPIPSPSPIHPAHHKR
T2 sequence (P08514 891-1039 partner limits assumed): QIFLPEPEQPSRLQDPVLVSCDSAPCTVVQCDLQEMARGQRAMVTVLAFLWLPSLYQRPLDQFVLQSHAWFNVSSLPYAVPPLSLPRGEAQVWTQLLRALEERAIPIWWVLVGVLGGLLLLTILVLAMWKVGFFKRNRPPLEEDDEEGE
T2 sequence (P05106 27-788): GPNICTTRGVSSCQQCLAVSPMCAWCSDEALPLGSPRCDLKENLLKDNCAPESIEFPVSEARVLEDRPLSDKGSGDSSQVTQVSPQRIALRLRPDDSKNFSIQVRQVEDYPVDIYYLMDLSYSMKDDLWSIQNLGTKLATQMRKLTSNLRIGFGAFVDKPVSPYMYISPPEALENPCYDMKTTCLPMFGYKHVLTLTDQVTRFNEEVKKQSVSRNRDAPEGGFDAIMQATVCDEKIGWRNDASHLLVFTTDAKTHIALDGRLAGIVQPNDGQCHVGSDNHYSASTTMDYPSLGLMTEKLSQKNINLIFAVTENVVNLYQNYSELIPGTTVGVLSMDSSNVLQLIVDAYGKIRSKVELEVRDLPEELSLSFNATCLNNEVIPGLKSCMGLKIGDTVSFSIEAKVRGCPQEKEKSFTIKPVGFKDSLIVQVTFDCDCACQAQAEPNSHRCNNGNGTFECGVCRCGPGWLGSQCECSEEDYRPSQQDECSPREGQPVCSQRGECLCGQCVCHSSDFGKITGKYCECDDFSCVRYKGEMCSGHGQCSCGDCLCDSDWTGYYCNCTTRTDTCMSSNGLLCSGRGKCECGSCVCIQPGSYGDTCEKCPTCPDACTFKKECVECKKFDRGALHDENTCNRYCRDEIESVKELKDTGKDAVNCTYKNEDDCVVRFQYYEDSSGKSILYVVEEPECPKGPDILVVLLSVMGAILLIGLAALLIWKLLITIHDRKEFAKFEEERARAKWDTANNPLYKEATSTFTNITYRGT
Description: as §1
To that end, PAC1 antibody was fluoresceinated with FICT as described by Taub et al., J. Biol. Chem., 264:259-265 (1989) to form FITC-PAC1 and used directly in flow cytometry. Briefly, 5×10^5 cells were harvested and resuspended to 50 ul in Tyrodes buffer [Frelinger et al., J. Biol. Chem., 265:6346-6352 (1990)]containing 10 ug/ml of FITC-PAC1 in the presence or absence of additional agonists. After a 30 minute incubation at 37 degrees, the samples were diluted to 0.5 ml with Tyrodes and analyzed by flow cytometry as described in Example 7.
To evaluate the capacity of a monoclonal antibody to activate (i.e., to increase specific ligand binding affinity of) the integrin GPIIb-IIIa, an assay was developed that measures PACT binding to GPIIb-IIIa bearing cells using the FACS analysis as described in Example 7.
In the PAC1-binding assay for integrin-activating antibody, the activating antibody was admixed with an integrin binding cell at a concentration of about 5 uM antibody. For GPIIb-IIIa, a suspension of cells was prepared as in Example 9, activating antibody was admixed at 5 uM and the admixture was maintained for 20 minutes on ice. Thereafter FITC-PAC1 was added as described in Example 9 and the FACS protocol followed as in Example 9 to measure PAC1 binding.

[3] = biological target: T2, αIIb β3 on A5 cells; assay: Soluble 125I-fibrinogen binding to A5 cells; type: cell-based
Description: FIG. 4 illustrates the equilibrium binding of soluble fibrinogen (Fg) to Ab-62 stimulated (activated) A5 cells when measured as in Example 10. A5 cells at a concentration of 10^6 per ml were admixed with 6 uM of Sepharose-purified AB-62 and maintained at 22 C. for 30 minutes to activate the integrin. Iodinated Fg was then admixed in varying concentrations from 0.01 to 1 nM. After a 60 minute maintenance period, the bound ligand was separated from free ligand by centrifugation through 0.3 ml of 20% sucrose. The amount of radiolabelled ligand associated with the cell pellet was determined by gamma detection. Saturable binding was measured in three different experiments and plotted versus the input Fg concentration to obtain an averaged profile. A Scatchard replot of the binding data was made and is shown in the insert.
An independent measure of integrin activation was made by detecting the ability of a cell containing the integrin to bind soluble fibrinogen (Fg) that had been labelled with ^125 I. Fg was isolated and labelled with ^125 I by standard methods as described by Marguerie et al., J. Biol. Chem., 255:154-161 (1980) to form ^125 I-Fg. Thereafter, the binding of ^125 I-Fg to transfected cells was assayed as described previously for platelets [Marguerie et al., J. Biol. Chem., 255:154-161 (1980)]. Binding was initiated by the addition of cells to radiolabelled Fg and incubation at 37 degrees for 30 minutes. Bound ligand was separated from free ligand by centrifugation through 0.3 ml of 20% sucrose and the amount of radiolabelled ligand associated with the cell pellet determined by gamma detection.
Background binding in this assay detected about 30,000 molecules of Fg bound per integrin bearing cell, whereas maximum Ab-62 stimulated A5 cells bound about 95,000 molecules of Fg per cell.
Equilibrium binding of soluble Fg to Ab-62 stimulated (activated) A5 cells was carried out to better characterize Fg binding. […] A5 cells (10^6 per ml) were incubated with 6 uM Sepharose-purified Ab-62 for 30 minutes at 22 C. to activate the integrin. Thereafter ^125 I-Fg was admixed in varying concentrations from 0.01 to 1 nM. After 60 minutes, bound Fg was measured as described above after centrifugation of the cells through sucrose.
Saturable binding was measured in three different experiments and plotted versus the input Fg concentration to obtain average data which is shown in FIG. 4. A Scatchard replot of the binding data was also made and is shown in the inset to FIG. 4. The binding of the various concentrations of Fg to activated A5 cells at steady state was analyzed by use of the "Ligand" computer program. […] There was day to day variation in the quantity of αIIb β3 expressed as measured by the binding of the 2G12 antibody (150,000 to 440,000 sites/cell) as well as in the number of Fg receptors (138,000 to 360,000 sites/cell). The ratio of Fg receptors to αIIb β3 expressed per cell on a given day was 0.83±0.05, thus virtually all of the recombinant αIIb β3 was functional with respect to Fg binding.

[4] = biological target: T3, αIIb β3 on fixed platelets (Homo sapiens, UniProt P05106+P08514); assay: FITC-PAC1 binding to formaldehyde fixed platelets; type: cell-based; details: 0.1% paraformaldehyde; PMA 50 nM, thrombin 1 unit/ml
T3 construct: To fix platelets, blood from a normal donor was centrifuged at 1,000 rpm; endogenous in cells; host or cells: platelets from blood of a normal donor, fixed with 0.1% paraformaldehyde
T3 sequence (P08514 32-887 limits assumed): as the sequence (P08514 32-887 limits assumed) above
T3 sequence (P08514 891-1039 partner limits assumed): as the sequence (P08514 891-1039 partner limits assumed) above
T3 sequence (P05106 27-788): as the sequence (P05106 27-788) above
Description: The data described in Examples 10 and 11 established that Fab fragments of the activating antibodies P41 or Ab62 activate A5 cells and platelets to express αIIb β3 dependent receptors for fluid phase Fg and PAC1. To determine if this activation required intracellular signal transduction events, the capacity of these Fabs to induce PACI binding to formaldehyde fixed platelets was measured.
To fix platelets, blood from a normal donor was centrifuged at 1,000 rpm for 20 minutes and the resulting platelet rich plasma incubated with 2 ug/ml PGE1 and 1 mM theophylline for 15 minutes at room temperature followed by a 15 minute room temperature incubation with 0.1% paraformaldehyde. Fixed or normal platelets were then analyzed for FITC-PAC1 binding as described above in Example 9 in the presence of platelet agonists, or activating antibody P41.

[5] = biological target: T1, GPIIb-IIIa on platelets; assay: 125I-anti-LIBS1 binding to platelets in the presence of fibrinogen; details: ADP (10 uM) stimulated platelets, 125I-anti-LIBS1 Fab 0.8 uM, 37 C 30 minutes; read-out: concentration of fibrinogen required for a half-maximal increase in anti-LIBS1 binding
Description: FIG. 1 illustrates anti-LIBS1 binding to platelets in the presence of ADP-stimulated fibrinogen as described in Example 4. Gel-filtered platelets (1 ×10^8 platelets/ml) were incubated with ^125 I-labeled anti-LIBS1 and varied concentrations of fibrinogen in the presence (ADP-stimulated) or absence (Control) of ADP (10 uM) for 30 minutes at 37 C. Platelet-bound radioactivity was separated from free by centrifuging the platelets through a layer of sucrose. Results are shown as the average of triplicate determinations +/ - one standard deviation.
Platelet rich plasma (PRP) was prepared as in Example 1A and divided into 2 aliquots. In one aliquot, the platelets were stimulated to express functional GPIIb-IIIa (fibrinogen receptors) by admixture of adenosine diphosphate (ADP) to a 10 uM final concentration to produce ADP-stimulatedplatelets. As a negative control, the second aliquot of PRP received no stimulus to produce non-stimulated platelets.
^125 I-labeled LIBSA (anti-LIBS1) Fab fragments, prepared by usual techniques from the ^125 I-labeled antibodies described in Example 2, were then admixed to a 0.8 uM final concentration with several samples of each of the PRP aliquots in the presence of varying concentrations of fibrinogen. […] The amount of ^125 I-anti LIBS1 associated with the pellet was then determined by gamma counting.

[6] = biological target: T4, solubilized αIIb β3 from platelets (Homo sapiens, UniProt P05106+P08514); assay: Solution phase assay: 125I-Fg binding to solubilized αIIb β3; type: biochemical
T4 construct: αIIb β3 was solubilized from platelets; endogenous in cells; host or cells: human platelets, octylglucoside lysate
T4 sequence (P08514 32-887 limits assumed): as the sequence (P08514 32-887 limits assumed) above
T4 sequence (P08514 891-1039 partner limits assumed): as the sequence (P08514 891-1039 partner limits assumed) above
T4 sequence (P05106 27-788): as the sequence (P05106 27-788) above
Description: To determine if activating antibodies could activate αIIb β3 extracted away f rom the membrane milieu, the activating capacity to stimulate Fg binding in a solution phase was assayed. In this assay, αIIb β3 was solubilized from platelets, incubated in the presence or absence of activating monoclonal antibodies, and then bound to microtiter plates coated with a non-activating monoclonal anti β3 antibody.
The platelet pellet was resuspended and solubilized in ice cold 10 mM Hepes containing 150 mM NaCl, 50 mM octyl-B-D-glucoypyranoside (Calbiochem, La Jolla, Calif.) 1 mm PMSF, 50 ng/ml PGE, 1 mM CaCl2, 1 mM MgCl2, 50 uM leupeptin and 1 mg/ml N-ethylmaleimide (Sigma, St. Louis, Mo.) and centrifuged at 100,000 g for 30 minutes. […] The microtiter wells were incubated at 4 C. overnight, washed twice with a modified Tyrodes-Hepes buffer (2.5 mM Hepes, 150 mM NaCl, 2.5 mM KCl, 1 mM MgCl2, 12 mM NaHCO3, 5.5 mM D-glucose and 1 mg/ml BSA, pH 7.4) containing 50 MM octyl-B-D-glucopyranoside and 0.1 uM activating monoclonal antibody and then twice in Tyrodes-Hepes buffer only to form αIIb β3 -bound microtiter wells. […] Bound radioactivity was counted after 2 washes with Tyrodes-Hepes buffer.

T1 sequence (P08514 32-887 limits assumed): as the sequence (P08514 32-887 limits assumed) above
T1 sequence (P08514 891-1039 partner limits assumed): as the sequence (P08514 891-1039 partner limits assumed) above
T1 sequence (P05106 27-788): as the sequence (P05106 27-788) above

## Nc1ncnc2c1ncn2[C@@H]1O[C@H](COP(=O)(O)OP(=O)(O)O)[C@@H](O)[C@H]1O [ADP, adenosine diphosphate]
[1]; ADP activated platelets, FACS
  PAC1 staining of agonist activated platelets: stained brightly
[2]
  stimulation of PAC1 binding to A5 cells by platelet agonists: failed to stimulate

## N=C(N)NCCC[C@H](NC(=O)CN)C(=O)NCC(=O)N[C@@H](CCC(=O)O)C(=O)N[C@@H](CO)C(=O)N1CCC[C@H]1C(=O)O [GRGESP] (H-GRGESP-OH)
[3]
  inhibition of soluble 125I-Fg binding to activated A5 cells: not inhibited

## CNC[C@H](O)c1ccc(O)c(O)c1 [epinephrine]
[2]
  stimulation of PAC1 binding to A5 cells by platelet agonists: failed to stimulate

## C[C@H](CCC(=O)O)C[C@H](C)C[C@H](C)C(=O)/C=C(\O)[C@H](C)C[C@H](C)C/C=C/[C@@H](C)[C@@H](O)[C@@H](C)[C@@H](O)C[C@@H]1CC[C@@](C)([C@H]2CC[C@@](C)([C@@H](C)O)O2)O1 [ionomycin]
[2]
  stimulation of PAC1 binding to A5 cells by platelet agonists: failed to stimulate

## CCCCCCCCCCCCCC(=O)O[C@@H]1[C@@H](C)[C@@]2(O)[C@@H](C=C(CO)C[C@]3(O)C(=O)C(C)=C[C@@H]23)[C@@H]2C(C)(C)[C@]12OC(C)=O [phorbol myristate acetate]
[2]
  stimulation of PAC1 binding to A5 cells by platelet agonists: failed to stimulate
[4]
  PAC1 response after fixation of platelets: completely abrogated

## PAC1
[1]; FITC-PAC1 10 ug/ml, no agonist
  reaction of PAC1 with resting platelets: did not react
[2]; FITC-PAC1 10 ug/ml, no agonist
  reaction of PAC1 with αIIb β3 in the A5 cell line: did not react

## fibrinogen
[5]
  EC50: ~700 nM
[3]; Ab-62 activated A5 cells
  non-saturable binding: 2.2±0.4×10^-3
[3]; Ab-62 activated A5 cells, 10^6 per ml
  receptor concentration: 2.3 ± 0.3 nM
[3]; Ab-62 activated A5 cells, Ligand program fit
  Fg binding sites per cell: 138,000 sites/cell
[3]; Ab-62 stimulated A5 cells
  reversibility of Fg binding: > 75%
  time for Fg binding to reach steady state: ≤ 30 min
[3]; activated A5 cells, day to day variation
  number of Fg receptors: 138,000 to 360,000 sites/cell
[3]; on a given day
  ratio of Fg receptors to αIIb β3 expressed per cell: 0.83±0.05
[6]
  inhibition of Fg binding to stimulated captured receptor: inhibition

## thrombin
[2]
  stimulation of PAC1 binding to A5 cells by platelet agonists: failed to stimulate
[4]
  PAC1 response after fixation of platelets: completely abrogated
